Measurements as given in US20090143317A1, “Quercetin Glycoside Composition and Method of Preparing the Same” (Suntory Limited, priority 2004, published 2009).

Assays:
[1] = Measurement of migration into the blood (orally administered in vivo absorbability); design: species or system SD male rats; conditions: rat, po, 150 umol/kg
Procedure: Blood was collected from the tail vein 0 minutes (before the administration), 30 minutes, 1 hour, and 3 hours after the administration, and heparin was added thereto. Centrifugation was then performed, and, from the supernatant, heparin plasma samples were prepared. The concentrations of quercetin-glucuronide conjugate and quercetin in the prepared heparin plasma samples were measured by HPLC under the following conditions. AUC (Area under the curve) (0 to 3 hr) (μg/ml·hr) was then calculated based on the area under the curve of the plasma concentration of quercetin-glucuronide conjugate (μg/ml) and the area under the curve of the plasma concentration of quercetin (μg/ml). Quercetin-glucuronide conjugate and quercetin are both in vivo metabolites of isoquercitrin. […] Subsequently, in the same manner as in Experiment 1, plasma was prepared, and the plasma concentration of quercetin-glucuronide conjugate and that of quercetin were measured by HPLC. […] Subsequently, in the same manner as in Experiment 1, plasma was prepared, and the plasma concentration of quercetin-glucuronide conjugate and that of quercetin were measured by HPLC. AUC (Area under the curve) (0 to 3 hr) (μg/ml·hr) was then calculated based on the area under the curve of the plasma concentration of quercetin-glucuronide conjugate (μg/ml) and the area under the curve of the plasma concentration of quercetin (μg/ml). […]

[2] = in vivo; cited from earlier work

Row | Compound | migration into the blood (orally administered in vivo absorbability), AUC (0 to 3 hr) of plasma quercetin-glucuronide conjugate plus quercetin [1] | absorbability [2]
1 | O=c1c(O[C@@H]2O[C@H](CO)[C@@H](O)[C@H](O)[C@H]2O)c(-c2ccc(O)c(O)c2)oc2cc(O)cc(O)c12 [IQC, quercetin 3-O-μ-D-glucopyranoside] | reduce absorbability | higher absorbability than quercetin and rutin
2 | O=c1c(OC2OC(CO)C(OC3OC(CO)C(O)C(O)C3O)C(O)C2O)c(-c2ccc(O)c(O)c2)oc2cc(O)cc(O)c12 (centres unmarked) [IQC-G1] | higher absorbability in this order | 
3 | O=c1c(O[C@@H]2O[C@H](CO)[C@@H](O)[C@H](O)[C@H]2O)c(-c2ccc(O[C@@H]3O[C@H](CO)[C@@H](O)[C@H](O)[C@H]3O)c(O)c2)oc2cc(O)cc(O)c12 [Quercetin-3,4′-β-D-glucoside] |  | higher absorbability
4 | O=c1c(O)c(-c2ccc(O[C@@H]3O[C@H](CO)[C@@H](O)[C@H](O)[C@H]3O)c(O)c2)oc2cc(O)cc(O)c12 [Quercetin-4′-β-D-glucoside] |  | higher absorbability
